We go through one compound from ChEMBL document CHEMBL1149842, “Purine alkaloids from the South China Sea gorgonian Subergorgia suberosa” (J Nat Prod, 2008).

Values after ≈ are worked out from the molar mass of the structure shown.

As a reminder, the IC50 is the midpoint of a concentration-inhibition curve. Read a high IC50 as a need for much substance.

In this assay the test system is MDA-MB-231. The assay can be described thus: Cytotoxicity against human MDA-MB-231 cells by MTT assay. The assay is classed as functional, cell-based. A general note: Formazan colour is commonly taken as a measure of viable cells.

`C[C@H]1CC[C@H]2[C@@H]3CC(=O)[C@H](Cn4c(O)nc5c(O)ncnc54)[C@@]13CC2(C)C` came in with an IC50 of 8.87 µg/mL (≈ 23.9 µM).
